This note sets out measurements from patent publication US5861395A, “Compounds useful for inhibition of farnesyl proteins transferase” (Schering Corporation, priority 1997, dated 1999).

Values joined by “and” are separate entries in the source; they are usually repeats but may differ in a detail not shown here. Equal values may be shown once. Read-outs that look alike come from different tables or passages of the source.

The test system of experiment [1] is COS Cell. Put plainly: COS Cell IC50 (Cell-Based Assay). The protocol: (§1) FPT IC50 (inhibition of farnesyl protein transferase, in vitro enzyme assay), GGPT IC50 (inhibition of geranylgeranyl protein transferase, in vitro enzyme assay) and COS Cell IC50 (Cell-Based Assay) were determined following the assay procedures described in WO 95/10516, published Apr. 20, 1995. Cell Mat Assay, and anti-tumor activity (in vivo anti-tumor studies) could be determined by the assay procedures described in WO 95/10516. The disclosure of WO 95/10516 is incorporated herein by reference thereto.

Experiment [2] addresses farnesyl protein transferase (H-ras) (Homo sapiens, UniProt P49354+P49356). In words: FPT IC50 (H-ras), in vitro enzyme assay. Format: biochemical. The method, then: as §1
Experiment [3] addresses farnesyl protein transferase (K-ras) (Homo sapiens, UniProt P49354+P49356). Put plainly: FPT IC50 (K-ras), in vitro enzyme assay. Format: biochemical. The protocol: as §1
In experiment [4] the target is farnesyl protein transferase. In words: FPT IC50 (inhibition of farnesyl protein transferase, in vitro enzyme assay). The format is biochemical. The text has this: In Table 2 "Ex. No." stands for "Example Number". In Table 2, FPT IC50 results are less indicated otherwise.
For experiment [5], the system named is Human tumor cells. Put plainly: Soft Agar Assay (anchorage-independent growth). The format is cell-based. The following applies: Homo sapiens, Table 4; colonies after 10-16 days at 37° C. The method, then:
Soft Agar Assay: Anchorage-independent growth is a characteristic of tumorigenic cell lines. Human tumor cells are suspended in growth medium containing 0.3% agarose and an indicated concentration of a farnesyl transferase inhibitor. The solution is overlayed onto growth medium solidified with 0.6% agarose containing the same concentration of farnesyl transferase inhibitor as the top layer. After the top layer is solidified, plates are incubated for 10-16 days at 37° C. under 5% CO2 to allow colony outgrowth. […] Colonies can be counted and the IC50 's can be determined.

The target in experiment [6] is T1, geranylgeranyl protein transferase (Rattus norvegicus, UniProt P53610+Q04631).
T1 construct: from tissue; host or cells: rat brain (own knowledge of the cited WO 95/10516)
In words: GGPT IC50 (inhibition of geranylgeranyl protein transferase, in vitro enzyme assay). The format is biochemical. The method, then: as §1

A word on the IC50: it is the concentration needed to halve the response being measured. In the case of `CC(=O)OC[C@H]1O[C@@H](NC(=S)N2CCC(CC(=O)N3CCC([C@H]4c5ncc(Br)cc5CCc5cc(Cl)cc(Br)c54)CC3)CC2)[C@H](OC(C)=O)[C@@H](OC(C)=O)[C@@H]1OC(C)=O` [Compound 4.0-B], the values for the 50% inhibitory concentration (IC50) in experiment [1] (Table 4), in experiment [2] and in experiment [3] were 1000 nM, 12 nM and 29 nM, respectively.
Turning to `O=CN1CCC(CC(=O)N2CCC([C@H]3c4ncc(Br)cc4CCc4cc(Cl)cc(Br)c43)CC2)CC1` [Compound 5.0-B], the 50% inhibitory concentration (IC50) in experiment [1] (Table 4) was 8 nM; in experiment [4] (Table 3), 3.7 nM; in experiment [3], 16 nM.
`NC(=O)O[C@H]1CC[C@@H](C(=O)N2CCC(CC(=O)N3CCC([C@H]4c5ncc(Br)cc5CCc5cc(Cl)cc(Br)c54)CC3)CC2)CC1` [Compound 94.0-B]: the 50% inhibitory concentration (IC50) stood at 25 nM in experiment [1] (Table 4), 210 nM in experiment [5] and 4 nM in experiment [4] (Table 3).
In the case of `N#CN1CCC(CC(=O)N2CCC([C@H]3c4ncc(Br)cc4CCc4cc(Cl)cc(Br)c43)CC2)CC1` [Compound 98.0-B], the 50% inhibitory concentration (IC50) in experiment [1] (Table 4) was 12 nM; in experiment [5], 100 nM; in experiment [2], 2.3 nM and 2.4 nM; in experiment [3], 17 nM.
With `O=C(CC1CCN(C(=O)N2CCOCC2)CC1)N1CCC([C@H]2c3ncc(Br)cc3CCc3cc(Cl)cc(Br)c32)CC1` [Compound 100.0-B], the 50% inhibitory concentration (IC50) in experiment [1] (Table 4) is < 10 nM; in experiment [5] it was 380 nM; in experiment [2], 5.5 nM.
With `N=C(Oc1ccccc1)N1CCC(CC(=O)N2CCN(C3c4ccc(Cl)cc4CCc4cc(Br)cnc43)CC2)CC1` (centres unmarked) [Example 3, PHENYL 4-[2-[4-(3-BROMO-8-CHLORO-6,11-DIHYDRO-5 H-BENZO[5,6]CYCLOHEPTA1,2-b]PYRIDIN-11-YL)-1-PIPERAZINYL]-2-OXOETHYL-1-PIPERIDINECARBOXIMIDATE], the midpoint of inhibition in experiment [2], the IC50, lay at 290 nM.
Regarding `N=C(Oc1ccccc1)N1CCC(CC(=O)N2CCC([C@H]3c4ncc(Br)cc4CCc4cc(Cl)cc(Br)c43)CC2)CC1` [Example 25], the IC50 in experiment [1] (Table 2) came to 24 nM; in experiment [1] (Table 4), 24 nM; in experiment [5], 200 nM; in experiment [4] (Table 2), 8.8 nM; in experiment [3], 46 nM.
`N=C(NCc1cccnc1)N1CCC(CC(=O)N2CCC(C3c4ccc(Cl)c(Br)c4CCc4cc(Br)cnc43)CC2)CC1` (centres unmarked) [Example 29]: the concentration for half-maximal inhibition (IC50) is > 1000 nM in experiment [1] (Table 2), 11 nM in experiment [4] (Table 2), 782 nM in experiment [3] (Table 2) and 7500 nM in experiment [6].
As for `N#CN1CCC(CC(=O)N2CCC(C3c4ccc(Cl)c(Br)c4CCc4cc(Br)cnc43)CC2)CC1` (centres unmarked) [Example 30], the IC50 in experiment [1] (Table 2) turned out to be 460 nM; in experiment [4] (Table 2) it was 7 nM; in experiment [3] (Table 2), 38.7 nM.
As for `CCn1cccc1C(=O)N1CCC(CC(=O)N2CCC([C@H]3c4ncc(Br)cc4CCc4cc(Cl)cc(Br)c43)CC2)CC1` [Example 54], the figures for the IC50 in experiment [1] (Table 4), in experiment [5] and in experiment [4] (Table 3) were 40 nM, > 500 nM and 7.8 nM, respectively.
